{"source": "paper PMC5909127", "about": "“Optimization of a “bump-and-hole” approach to allele-selective BET bromodomain inhibition” (Chemical Science, 2018)", "key": {"GAL2 (h)": {"target": "GAL2 (h) (Homo sapiens, UniProt O43603)", "test": "CEREP ExpresSProfile", "conditions": "read-out: Mean % of control specific binding (±SD)", "source_text": "(§1) Receptor Reference Compound Mean % of control specific\nReceptor & Ion-Channel Screening\nCEREP ExpresSProfile panel"}, "ETA (h)": {"target": "ETA (h) (Homo sapiens, UniProt P25101)", "sequence (P25101 21-427)": "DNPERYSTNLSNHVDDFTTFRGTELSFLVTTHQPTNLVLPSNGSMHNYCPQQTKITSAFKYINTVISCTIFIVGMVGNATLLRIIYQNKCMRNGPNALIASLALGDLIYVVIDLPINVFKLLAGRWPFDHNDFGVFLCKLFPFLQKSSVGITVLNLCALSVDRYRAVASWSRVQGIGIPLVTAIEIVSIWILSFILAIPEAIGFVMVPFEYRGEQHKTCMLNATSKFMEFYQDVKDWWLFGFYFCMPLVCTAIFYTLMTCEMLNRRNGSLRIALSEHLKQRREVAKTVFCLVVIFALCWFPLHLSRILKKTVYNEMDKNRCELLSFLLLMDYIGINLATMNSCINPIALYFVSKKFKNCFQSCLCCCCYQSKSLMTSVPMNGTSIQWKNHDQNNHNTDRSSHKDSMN", "test": "CEREP ExpresSProfile", "conditions": "read-out: Mean % of control specific binding (±SD)", "source_text": "as §1\nReceptor & Ion-Channel Screening\nCEREP ExpresSProfile panel"}, "B2 (h)": {"target": "B2 (h) (Homo sapiens, UniProt P30411)", "test": "CEREP ExpresSProfile", "conditions": "read-out: Mean % of control specific binding (±SD)"}, "Y2 (h)": {"target": "Y2 (h) (Homo sapiens, UniProt P49146)", "sequence (P49146 whole entry)": "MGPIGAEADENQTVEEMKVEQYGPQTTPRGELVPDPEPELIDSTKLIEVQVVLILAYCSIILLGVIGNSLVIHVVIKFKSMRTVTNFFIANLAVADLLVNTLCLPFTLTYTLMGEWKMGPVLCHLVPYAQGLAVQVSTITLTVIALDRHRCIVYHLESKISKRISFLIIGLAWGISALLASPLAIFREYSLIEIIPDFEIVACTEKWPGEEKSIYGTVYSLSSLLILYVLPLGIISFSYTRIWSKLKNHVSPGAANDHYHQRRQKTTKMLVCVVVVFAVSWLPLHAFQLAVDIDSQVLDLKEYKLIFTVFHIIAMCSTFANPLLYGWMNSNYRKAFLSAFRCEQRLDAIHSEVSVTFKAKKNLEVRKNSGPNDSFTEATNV", "test": "CEREP ExpresSProfile", "conditions": "read-out: Mean % of control specific binding (±SD)"}, "NTS1 (NT1) (h)": {"target": "NTS1 (NT1) (h) (Homo sapiens, UniProt P30989)", "sequence (P30989 whole entry)": "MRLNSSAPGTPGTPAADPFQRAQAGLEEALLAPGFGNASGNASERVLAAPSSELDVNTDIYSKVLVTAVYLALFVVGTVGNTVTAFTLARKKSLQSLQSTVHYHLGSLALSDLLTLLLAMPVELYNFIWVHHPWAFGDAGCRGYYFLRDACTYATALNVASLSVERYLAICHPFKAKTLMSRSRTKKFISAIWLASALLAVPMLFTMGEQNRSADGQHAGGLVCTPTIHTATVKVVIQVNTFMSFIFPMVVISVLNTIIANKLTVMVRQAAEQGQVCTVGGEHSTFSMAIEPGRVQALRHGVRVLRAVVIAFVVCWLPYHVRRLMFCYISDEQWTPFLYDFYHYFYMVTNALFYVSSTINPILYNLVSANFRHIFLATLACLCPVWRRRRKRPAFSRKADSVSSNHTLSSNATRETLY", "test": "CEREP ExpresSProfile", "conditions": "read-out: Mean % of control specific binding (±SD)"}, "5-HT3 (h)": {"target": "5-HT3 (h) (Homo sapiens, UniProt P46098)", "test": "CEREP ExpresSProfile", "conditions": "read-out: Mean % of control specific binding (±SD)", "source_text": "as §1\nReceptor & Ion-Channel Screening\nCEREP ExpresSProfile panel"}, "M2 (h)": {"target": "M2 (h) (Homo sapiens, UniProt P08172)", "sequence (P08172 whole entry)": "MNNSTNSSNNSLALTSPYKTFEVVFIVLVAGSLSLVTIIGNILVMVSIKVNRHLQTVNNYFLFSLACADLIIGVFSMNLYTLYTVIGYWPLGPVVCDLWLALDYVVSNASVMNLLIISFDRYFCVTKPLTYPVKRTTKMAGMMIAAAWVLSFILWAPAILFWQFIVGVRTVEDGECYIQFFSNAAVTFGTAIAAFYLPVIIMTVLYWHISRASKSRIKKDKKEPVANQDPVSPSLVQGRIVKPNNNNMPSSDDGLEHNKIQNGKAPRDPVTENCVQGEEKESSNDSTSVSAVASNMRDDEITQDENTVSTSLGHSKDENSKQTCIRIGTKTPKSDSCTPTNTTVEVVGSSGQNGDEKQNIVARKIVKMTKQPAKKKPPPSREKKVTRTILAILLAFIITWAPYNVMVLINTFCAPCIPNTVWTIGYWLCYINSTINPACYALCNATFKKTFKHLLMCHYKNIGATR", "test": "CEREP ExpresSProfile", "conditions": "read-out: Mean % of control specific binding (±SD)"}, "KV channel": {"system": "KV channel", "test": "CEREP ExpresSProfile", "type": "binding", "conditions": "1 µM", "source_text": "as §1\nReceptor & Ion-Channel Screening\nCEREP ExpresSProfile panel"}, "EP4 (h)": {"target": "EP4 (h) (Homo sapiens, UniProt P35408)", "test": "CEREP ExpresSProfile", "conditions": "read-out: Mean % of control specific binding (±SD)"}, "[1]": {"target": "GFP-labelled WT BRD4 in U2OS cells (Homo sapiens, UniProt O60885)", "test": "FRAP", "conditions": "200 nM, 2 μM SAHA"}, "[2]": {"system": "Ca2+ channel (L, verapamil site)", "test": "CEREP ExpresSProfile", "type": "binding", "conditions": "1 µM"}, "mu (MOP) (h)": {"target": "mu (MOP) (h) (Homo sapiens, UniProt P35372)", "sequence (P35372 whole entry)": "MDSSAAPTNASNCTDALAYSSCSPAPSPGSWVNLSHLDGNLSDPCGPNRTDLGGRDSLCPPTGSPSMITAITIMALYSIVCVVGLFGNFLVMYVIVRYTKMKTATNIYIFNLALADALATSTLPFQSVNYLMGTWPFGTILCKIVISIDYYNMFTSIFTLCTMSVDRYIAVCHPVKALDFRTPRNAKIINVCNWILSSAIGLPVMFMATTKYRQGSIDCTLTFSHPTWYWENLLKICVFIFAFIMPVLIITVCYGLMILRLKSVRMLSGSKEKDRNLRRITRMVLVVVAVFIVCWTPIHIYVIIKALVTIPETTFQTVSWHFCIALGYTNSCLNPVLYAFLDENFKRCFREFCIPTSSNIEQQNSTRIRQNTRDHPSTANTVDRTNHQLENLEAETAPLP", "test": "CEREP ExpresSProfile", "conditions": "read-out: Mean % of control specific binding (±SD)"}, "NK2 (h)": {"target": "NK2 (h) (Homo sapiens, UniProt P21452)", "test": "CEREP ExpresSProfile", "conditions": "read-out: Mean % of control specific binding (±SD)"}, "H1 (h)": {"target": "H1 (h) (Homo sapiens, UniProt P35367)", "test": "CEREP ExpresSProfile", "conditions": "read-out: Mean % of control specific binding (±SD)"}, "A1 (h)": {"target": "A1 (h) (Homo sapiens, UniProt P30542)", "sequence (P30542 whole entry)": "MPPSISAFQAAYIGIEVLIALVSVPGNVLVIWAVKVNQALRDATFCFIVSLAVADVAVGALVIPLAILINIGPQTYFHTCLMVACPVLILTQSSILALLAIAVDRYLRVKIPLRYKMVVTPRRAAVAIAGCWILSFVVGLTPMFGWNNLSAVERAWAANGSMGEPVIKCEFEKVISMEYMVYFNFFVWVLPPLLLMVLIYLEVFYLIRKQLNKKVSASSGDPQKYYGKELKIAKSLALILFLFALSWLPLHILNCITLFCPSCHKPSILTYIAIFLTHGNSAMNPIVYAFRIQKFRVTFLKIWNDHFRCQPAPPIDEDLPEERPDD", "test": "CEREP ExpresSProfile", "conditions": "read-out: Mean % of control specific binding (±SD)", "source_text": "as §1\nReceptor & Ion-Channel Screening\nCEREP ExpresSProfile panel"}, "5-HT1A (h)": {"target": "5-HT1A (h) (Homo sapiens, UniProt P08908)", "sequence (P08908 whole entry)": "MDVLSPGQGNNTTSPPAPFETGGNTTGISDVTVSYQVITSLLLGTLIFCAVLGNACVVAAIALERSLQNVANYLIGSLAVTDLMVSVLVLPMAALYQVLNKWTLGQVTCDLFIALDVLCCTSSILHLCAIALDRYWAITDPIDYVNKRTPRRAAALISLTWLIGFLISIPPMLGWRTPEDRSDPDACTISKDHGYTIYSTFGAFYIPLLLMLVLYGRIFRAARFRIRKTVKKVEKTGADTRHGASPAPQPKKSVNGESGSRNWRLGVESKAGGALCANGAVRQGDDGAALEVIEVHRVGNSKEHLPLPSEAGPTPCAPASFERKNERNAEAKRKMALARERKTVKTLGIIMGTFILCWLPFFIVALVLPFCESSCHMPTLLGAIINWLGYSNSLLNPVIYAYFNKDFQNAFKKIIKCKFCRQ", "test": "CEREP ExpresSProfile", "conditions": "read-out: Mean % of control specific binding (±SD)"}, "NK3 (h)": {"target": "NK3 (h) (Homo sapiens, UniProt P29371)", "sequence (P29371 whole entry)": "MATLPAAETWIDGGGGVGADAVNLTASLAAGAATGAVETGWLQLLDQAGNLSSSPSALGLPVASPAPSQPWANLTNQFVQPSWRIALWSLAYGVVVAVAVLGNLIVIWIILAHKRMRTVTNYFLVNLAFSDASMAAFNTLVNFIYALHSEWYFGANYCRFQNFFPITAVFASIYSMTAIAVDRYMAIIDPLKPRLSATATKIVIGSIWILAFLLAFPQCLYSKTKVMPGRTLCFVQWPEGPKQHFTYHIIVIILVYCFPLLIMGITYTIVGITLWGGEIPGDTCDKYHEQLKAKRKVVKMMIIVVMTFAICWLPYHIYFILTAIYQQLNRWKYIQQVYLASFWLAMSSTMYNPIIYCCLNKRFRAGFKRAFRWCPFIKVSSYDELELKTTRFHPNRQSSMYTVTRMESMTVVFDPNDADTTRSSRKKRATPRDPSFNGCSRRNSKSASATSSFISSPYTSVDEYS", "test": "CEREP ExpresSProfile", "conditions": "read-out: Mean % of control specific binding (±SD)", "source_text": "as §1\nReceptor & Ion-Channel Screening\nCEREP ExpresSProfile panel"}, "sst (non-selective)": {"system": "sst (non-selective)", "test": "CEREP ExpresSProfile", "type": "binding", "conditions": "1 µM"}, "5-HT2A (h)": {"target": "5-HT2A (h) (Homo sapiens, UniProt P28223)", "test": "CEREP ExpresSProfile", "conditions": "read-out: Mean % of control specific binding (±SD)", "source_text": "as §1\nReceptor & Ion-Channel Screening\nCEREP ExpresSProfile panel"}, "[3]": {"test": "WT Cell Cytotoxicity (CellTiter-Glo)", "conditions": "human, HL-60 cells (BET-dependent AML cell line)"}, "beta 1 (h)": {"target": "beta 1 (h) (Homo sapiens, UniProt P08588)", "sequence (P08588 whole entry)": "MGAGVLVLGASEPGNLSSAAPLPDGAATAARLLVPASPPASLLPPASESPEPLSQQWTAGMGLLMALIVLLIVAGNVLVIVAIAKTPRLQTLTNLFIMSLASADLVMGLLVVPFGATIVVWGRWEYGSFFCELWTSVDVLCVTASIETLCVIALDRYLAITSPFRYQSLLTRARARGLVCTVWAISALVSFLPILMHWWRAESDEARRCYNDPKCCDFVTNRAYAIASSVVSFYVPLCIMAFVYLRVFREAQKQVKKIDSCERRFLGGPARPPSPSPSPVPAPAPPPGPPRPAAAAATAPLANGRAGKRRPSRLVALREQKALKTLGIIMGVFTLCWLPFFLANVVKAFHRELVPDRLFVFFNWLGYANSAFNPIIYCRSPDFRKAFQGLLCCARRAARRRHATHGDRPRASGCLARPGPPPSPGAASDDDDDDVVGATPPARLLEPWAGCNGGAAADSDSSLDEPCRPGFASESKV", "test": "CEREP ExpresSProfile", "conditions": "read-out: Mean % of control specific binding (±SD)"}, "Na+ channel (site 2)": {"system": "Na+ channel (site 2)", "test": "CEREP ExpresSProfile", "type": "binding", "conditions": "1 µM"}, "CB1 (h)": {"target": "CB1 (h) (Homo sapiens, UniProt P21554)", "test": "CEREP ExpresSProfile", "conditions": "read-out: Mean % of control specific binding (±SD)", "source_text": "as §1\nReceptor & Ion-Channel Screening\nCEREP ExpresSProfile panel"}, "5-HT7 (h)": {"target": "5-HT7 (h) (Homo sapiens, UniProt P34969)", "sequence (P34969 whole entry)": "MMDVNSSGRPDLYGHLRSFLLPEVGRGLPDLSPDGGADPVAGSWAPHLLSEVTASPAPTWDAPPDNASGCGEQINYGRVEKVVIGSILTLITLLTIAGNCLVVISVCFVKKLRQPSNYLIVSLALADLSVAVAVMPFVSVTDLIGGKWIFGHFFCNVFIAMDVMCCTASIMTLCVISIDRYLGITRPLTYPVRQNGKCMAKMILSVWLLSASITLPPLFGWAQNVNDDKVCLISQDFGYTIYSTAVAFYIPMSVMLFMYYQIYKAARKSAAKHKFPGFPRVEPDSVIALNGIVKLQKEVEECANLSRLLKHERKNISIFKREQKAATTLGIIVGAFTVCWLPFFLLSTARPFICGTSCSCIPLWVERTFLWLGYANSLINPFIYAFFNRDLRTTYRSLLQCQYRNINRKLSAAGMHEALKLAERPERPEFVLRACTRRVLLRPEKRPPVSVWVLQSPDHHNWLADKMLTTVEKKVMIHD", "test": "CEREP ExpresSProfile", "conditions": "read-out: Mean % of control specific binding (±SD)"}, "H2 (h)": {"target": "H2 (h) (Homo sapiens, UniProt P25021)", "test": "CEREP ExpresSProfile", "conditions": "read-out: Mean % of control specific binding (±SD)"}, "MT1 (ML1A) (h)": {"target": "MT1 (ML1A) (h) (Homo sapiens, UniProt P48039)", "sequence (P48039 whole entry)": "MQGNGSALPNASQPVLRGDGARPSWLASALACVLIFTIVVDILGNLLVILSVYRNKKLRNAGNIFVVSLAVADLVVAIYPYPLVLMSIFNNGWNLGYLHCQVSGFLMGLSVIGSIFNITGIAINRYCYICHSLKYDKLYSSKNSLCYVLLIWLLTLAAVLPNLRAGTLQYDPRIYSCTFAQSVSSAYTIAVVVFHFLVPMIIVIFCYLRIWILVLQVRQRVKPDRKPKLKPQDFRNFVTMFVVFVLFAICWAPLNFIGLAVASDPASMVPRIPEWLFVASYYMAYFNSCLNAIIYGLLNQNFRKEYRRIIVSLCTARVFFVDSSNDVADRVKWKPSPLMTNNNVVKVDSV", "test": "CEREP ExpresSProfile", "type": "binding"}, "CXCR2 (IL-8B) (h)": {"target": "CXCR2 (IL-8B) (h) (Homo sapiens, UniProt P25025)", "test": "CEREP ExpresSProfile", "conditions": "read-out: Mean % of control specific binding (±SD)", "source_text": "as §1\nReceptor & Ion-Channel Screening\nCEREP ExpresSProfile panel"}, "5-HT1B": {"target": "5-HT1B (Rattus norvegicus, UniProt P28564)", "test": "CEREP ExpresSProfile", "conditions": "read-out: Mean % of control specific binding (±SD)"}, "5-HT2B (h)": {"target": "5-HT2B (h) (Homo sapiens, UniProt P41595)", "test": "CEREP ExpresSProfile", "conditions": "read-out: Mean % of control specific binding (±SD)"}, "GABA (non-selective)": {"system": "GABA (non-selective)", "test": "CEREP ExpresSProfile", "type": "binding", "conditions": "1 µM"}, "Y1 (h)": {"target": "Y1 (h) (Homo sapiens, UniProt P25929)", "test": "CEREP ExpresSProfile", "conditions": "read-out: Mean % of control specific binding (±SD)"}, "5-HT5a (h)": {"target": "5-HT5a (h) (Homo sapiens, UniProt P47898)", "test": "CEREP ExpresSProfile", "conditions": "read-out: Mean % of control specific binding (±SD)"}, "Cl- channel (GABA-gated)": {"system": "Cl- channel (GABA-gated)", "test": "CEREP ExpresSProfile", "type": "binding", "conditions": "1 µM"}, "BRD4 BD2 WT": {"target": "BRD4 BD2 WT (Homo sapiens, UniProt O60885)", "test": "competitive AlphaLISA", "type": "binding"}, "BRDT BD1 WT": {"target": "BRDT BD1 WT (Homo sapiens, UniProt Q58F21)", "test": "competitive AlphaLISA", "type": "binding"}, "BRD3 BD2 WT": {"target": "BRD3 BD2 WT (Homo sapiens, UniProt Q15059)", "test": "competitive AlphaLISA", "type": "binding"}, "BRD4 BD2 L/V": {"target": "BRD4 BD2 L/V (Homo sapiens, UniProt O60885, L387V)", "test": "competitive AlphaLISA", "type": "binding"}, "BRD2 BD1 L/V": {"target": "BRD2 BD1 L/V (Homo sapiens, UniProt P25440, L110V)", "sequence (P25440 71-176 L110V limits assumed)": "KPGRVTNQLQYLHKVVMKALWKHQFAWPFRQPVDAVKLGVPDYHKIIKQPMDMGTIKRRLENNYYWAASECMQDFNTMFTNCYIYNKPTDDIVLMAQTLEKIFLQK", "test": "competitive AlphaLISA", "type": "binding"}, "BRD2 BD2 L/V": {"target": "BRD2 BD2 L/V (Homo sapiens, UniProt P25440, L383V)", "sequence (P25440 344-455 L383V)": "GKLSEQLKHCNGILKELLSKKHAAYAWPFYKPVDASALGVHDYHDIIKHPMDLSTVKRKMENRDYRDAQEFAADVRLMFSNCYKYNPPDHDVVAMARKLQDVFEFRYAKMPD", "test": "competitive AlphaLISA", "type": "binding"}, "[4]": {"system": "L/V BET bromodomains (BD1 and BD2 of BRD2, BRD3 and BRD4)", "test": "competitive AlphaLISA (Bio-JQ1 displacement)", "type": "binding, human"}, "[5]": {"target": "WT somatic BET bromodomains", "test": "ITC", "conditions": "mean and SD of all somatic bromodomains"}, "BRD2 BD2 WT": {"target": "BRD2 BD2 WT (Homo sapiens, UniProt P25440)", "sequence (P25440 344-455)": "as the sequence (P25440 344-455 L383V) above, with V40L counted along it", "test": "competitive AlphaLISA", "type": "binding"}}}
{"smiles": "COC(=O)[C@H](C)[C@@H]1N=C(c2ccc(Cl)cc2)c2ccc(OC)cc2-n2c(C)nnc21", "note": "[(2R,3S)-7]", "values": [{"measurement": "remaining activity at 1 µM", "setting": "GAL2 (h)", "value": 96, "unit": "%"}, {"measurement": "remaining activity at 1 µM", "setting": "ETA (h)", "value": 87, "unit": "%"}, {"measurement": "remaining activity at 1 µM", "setting": "B2 (h)", "value": 98, "unit": "%"}, {"measurement": "remaining activity at 1 µM", "setting": "Y2 (h)", "value": 110, "unit": "%"}, {"measurement": "remaining activity at 1 µM", "setting": "NTS1 (NT1) (h)", "value": 106, "unit": "%"}, {"measurement": "remaining activity at 1 µM", "setting": "5-HT3 (h)", "value": 96, "unit": "%"}, {"measurement": "remaining activity at 1 µM", "setting": "M2 (h)", "value": 105, "unit": "%"}, {"measurement": "Mean % of control specific binding (±SD)", "setting": "KV channel", "value": "100 (0) %"}, {"measurement": "remaining activity at 1 µM", "setting": "EP4 (h)", "value": 93, "unit": "%"}, {"measurement": "blockade of WT BRD4 (FRAP)", "setting": "[1]", "value": "no statistically significant blockade"}, {"measurement": "Mean % of control specific binding (±SD)", "setting": "[2]", "value": "108 (6) %"}, {"measurement": "remaining activity at 1 µM", "setting": "mu (MOP) (h)", "value": 119, "unit": "%"}, {"measurement": "remaining activity at 1 µM", "setting": "NK2 (h)", "value": 101, "unit": "%"}, {"measurement": "remaining activity at 1 µM", "setting": "H1 (h)", "value": 108, "unit": "%"}, {"measurement": "remaining activity at 1 µM", "setting": "A1 (h)", "value": 100, "unit": "%"}, {"measurement": "remaining activity at 1 µM", "setting": "5-HT1A (h)", "value": 104, "unit": "%"}, {"measurement": "remaining activity at 1 µM", "setting": "NK3 (h)", "value": 99, "unit": "%"}, {"measurement": "Mean % of control specific binding (±SD)", "setting": "sst (non-selective)", "value": "108 (6) %"}, {"measurement": "remaining activity at 1 µM", "setting": "5-HT2A (h)", "value": 100, "unit": "%"}, {"measurement": "CC50 at 48 h", "setting": "[3]", "value": "> 5.01", "unit": "µM"}, {"measurement": "remaining activity at 1 µM", "setting": "beta 1 (h)", "value": 95, "unit": "%"}, {"measurement": "Mean % of control specific binding (±SD)", "setting": "Na+ channel (site 2)", "value": "105 (6) %"}, {"measurement": "remaining activity at 1 µM", "setting": "CB1 (h)", "value": 90, "unit": "%"}, {"measurement": "remaining activity at 1 µM", "setting": "5-HT7 (h)", "value": 106, "unit": "%"}, {"measurement": "remaining activity at 1 µM", "setting": "H2 (h)", "value": 117, "unit": "%"}, {"measurement": "inhibition at 1 µM", "setting": "MT1 (ML1A) (h)", "value": 77, "unit": "%"}, {"measurement": "remaining activity at 1 µM", "setting": "MT1 (ML1A) (h); read-out: Mean % of control specific binding (±SD)", "value": 23, "unit": "%"}, {"measurement": "remaining activity at 1 µM", "setting": "CXCR2 (IL-8B) (h)", "value": 96, "unit": "%"}, {"measurement": "remaining activity at 1 µM", "setting": "5-HT1B", "value": 98, "unit": "%"}, {"measurement": "remaining activity at 1 µM", "setting": "5-HT2B (h)", "value": 109, "unit": "%"}, {"measurement": "Mean % of control specific binding (±SD)", "setting": "GABA (non-selective)", "value": "110 (1) %"}, {"measurement": "remaining activity at 1 µM", "setting": "Y1 (h)", "value": 122, "unit": "%"}, {"measurement": "remaining activity at 1 µM", "setting": "5-HT5a (h)", "value": 109, "unit": "%"}, {"measurement": "Mean % of control specific binding (±SD)", "setting": "Cl- channel (GABA-gated)", "value": "98 (4) %"}]}
{"smiles": "CC[C@@H](C(=O)OC)[C@@H]1N=C(c2ccc(Cl)cc2)c2ccc(OC)cc2-n2c(C)nnc21", "note": "(racemic) [Compound 8]", "values": [{"measurement": "IC50", "setting": "BRD4 BD2 WT", "value": 3.16, "unit": "µM"}, {"measurement": "IC50", "setting": "BRDT BD1 WT", "value": 15.8, "unit": "µM"}, {"measurement": "IC50", "setting": "BRD3 BD2 WT", "value": 3.98, "unit": "µM"}, {"measurement": "IC50", "setting": "BRD4 BD2 L/V", "value": 0.2, "unit": "µM"}, {"measurement": "IC50", "setting": "BRD2 BD1 L/V", "value": 0.316, "unit": "µM"}, {"measurement": "IC50", "setting": "BRD2 BD2 L/V", "value": 0.2, "unit": "µM"}, {"measurement": "AlphaLISA pIC50 ± SD Δ", "setting": "[4]; L/V minus WT", "value": "1.4 ± 0.2"}, {"measurement": "AlphaLISA pIC50 ± SD L/V", "setting": "[4]; mean and SD of all somatic bromodomains, active enantiomer concentration", "value": "6.8 ± 0.2"}, {"measurement": "ITC pKd ± SD WT", "setting": "[5]", "value": "<4.2"}, {"measurement": "IC50", "setting": "BRD2 BD2 WT", "value": 3.98, "unit": "µM"}]}
